The values that follow come from ChEMBL document CHEMBL5465560, “Selectivity Literature for EUbOPEN Chemogenomic Library” (2024).

Assay [1] deals with Mitogen-activated protein kinase 1 (Homo sapiens, UniProt P28482). The experiment in a line: Selectivity interaction (Kinase panel (KiNativ target engagement assay in Jurkat cells)) EUB0001635a MAPK1. Type of assay: cell-based. The note with it: Selectivity number of off-targets 0.0, Selectivity number of targets 233.0, Source Knowledge https://www.sciencedirect.com/science/article/pii/S2451945619300674?via%3Dihub, at 1 µM.

The target in assay [2] is T1, Serine/threonine-protein kinase greatwall (Homo sapiens) (UniProt Q96GX5).
T1 sequence (whole entry): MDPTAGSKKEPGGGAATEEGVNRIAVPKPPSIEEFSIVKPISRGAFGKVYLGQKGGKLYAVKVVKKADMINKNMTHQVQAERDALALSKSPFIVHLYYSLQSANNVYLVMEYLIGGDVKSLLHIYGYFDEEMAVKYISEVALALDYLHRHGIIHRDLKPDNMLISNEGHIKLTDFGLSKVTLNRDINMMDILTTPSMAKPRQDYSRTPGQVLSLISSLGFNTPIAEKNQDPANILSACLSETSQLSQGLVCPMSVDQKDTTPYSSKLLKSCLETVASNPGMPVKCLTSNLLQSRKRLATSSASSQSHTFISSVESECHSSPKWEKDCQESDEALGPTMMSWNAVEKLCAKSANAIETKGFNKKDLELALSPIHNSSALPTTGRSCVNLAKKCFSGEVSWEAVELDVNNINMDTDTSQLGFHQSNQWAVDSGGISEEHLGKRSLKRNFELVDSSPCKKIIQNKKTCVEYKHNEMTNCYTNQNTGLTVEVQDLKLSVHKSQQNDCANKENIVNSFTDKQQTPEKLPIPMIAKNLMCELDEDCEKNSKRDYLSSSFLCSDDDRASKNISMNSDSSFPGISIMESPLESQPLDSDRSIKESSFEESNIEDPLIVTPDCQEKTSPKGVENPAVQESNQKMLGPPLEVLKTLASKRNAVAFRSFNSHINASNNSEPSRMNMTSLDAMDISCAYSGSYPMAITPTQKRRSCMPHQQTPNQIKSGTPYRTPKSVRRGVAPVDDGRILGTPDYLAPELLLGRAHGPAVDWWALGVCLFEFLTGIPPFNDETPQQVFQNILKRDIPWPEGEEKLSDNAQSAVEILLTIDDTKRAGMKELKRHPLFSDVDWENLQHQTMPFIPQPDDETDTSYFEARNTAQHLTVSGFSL
The assay can be described thus: Selectivity interaction (ActivX KiNativ screen (kinase selectivity in THP-1 cell lysates)) EUB0000639a MASTL. The class given is subcellular. The following applies: lysate, at 0.2 µM.

The target in assay [3] is T2, Beta-adrenergic receptor kinase 1 (Homo sapiens) (UniProt P25098).
T2 sequence (whole entry): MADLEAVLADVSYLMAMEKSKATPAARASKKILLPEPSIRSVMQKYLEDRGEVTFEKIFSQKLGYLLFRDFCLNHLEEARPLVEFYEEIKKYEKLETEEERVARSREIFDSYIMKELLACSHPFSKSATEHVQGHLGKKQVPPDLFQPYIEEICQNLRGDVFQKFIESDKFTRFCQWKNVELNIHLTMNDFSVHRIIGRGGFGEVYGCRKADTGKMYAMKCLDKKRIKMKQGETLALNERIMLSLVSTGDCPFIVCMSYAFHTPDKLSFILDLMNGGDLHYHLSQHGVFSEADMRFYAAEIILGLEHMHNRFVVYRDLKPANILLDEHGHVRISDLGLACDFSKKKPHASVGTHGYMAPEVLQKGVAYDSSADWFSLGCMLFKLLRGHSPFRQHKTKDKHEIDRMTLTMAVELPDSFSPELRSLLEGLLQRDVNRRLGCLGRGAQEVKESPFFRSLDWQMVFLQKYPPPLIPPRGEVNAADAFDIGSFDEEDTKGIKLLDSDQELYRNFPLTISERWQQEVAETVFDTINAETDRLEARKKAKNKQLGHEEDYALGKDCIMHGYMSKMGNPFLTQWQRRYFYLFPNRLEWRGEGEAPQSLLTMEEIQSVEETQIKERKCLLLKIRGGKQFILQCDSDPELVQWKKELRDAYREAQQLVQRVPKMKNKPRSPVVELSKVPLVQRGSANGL
The assay can be described thus: Selectivity interaction (KinomeScan (DiscoverX)) EUB0000695a ADRBK1. The note with it: at 100 nM.

The target in assay [4] is ALK tyrosine kinase receptor (Homo sapiens, UniProt Q9UM73). The assay can be described thus: Selectivity interaction (KinomeScan (DiscoverX)) EUB0000092b ALK. The following applies: at 10 µM.
Assay [5] has as its target N-lysine methyltransferase SMYD2 (Homo sapiens) (UniProt Q9NRG4). The experiment in a line: Selectivity interaction (Methyltransferase screen (radiometric assays, panel of 8 PRMTs, 21 protein lysine methyltransferases, 3 DNA methyltransferases, and one RNA methyltransferase)) EUB0000272b SMYD2.

Chain of N-lysine methyltransferase SMYD2 (Homo sapiens) (Q9NRG4 whole entry): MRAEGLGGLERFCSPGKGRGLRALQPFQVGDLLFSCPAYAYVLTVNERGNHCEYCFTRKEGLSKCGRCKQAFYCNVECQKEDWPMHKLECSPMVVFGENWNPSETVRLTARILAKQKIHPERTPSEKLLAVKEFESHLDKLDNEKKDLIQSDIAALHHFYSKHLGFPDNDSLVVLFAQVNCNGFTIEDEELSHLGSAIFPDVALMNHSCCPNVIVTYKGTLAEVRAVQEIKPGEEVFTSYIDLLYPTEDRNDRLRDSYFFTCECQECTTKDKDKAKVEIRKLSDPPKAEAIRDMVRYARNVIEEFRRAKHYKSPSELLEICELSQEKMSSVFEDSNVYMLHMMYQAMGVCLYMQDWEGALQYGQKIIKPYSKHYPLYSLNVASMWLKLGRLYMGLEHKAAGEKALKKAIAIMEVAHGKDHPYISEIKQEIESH
Chain of Mitogen-activated protein kinase 1 (P28482 whole entry): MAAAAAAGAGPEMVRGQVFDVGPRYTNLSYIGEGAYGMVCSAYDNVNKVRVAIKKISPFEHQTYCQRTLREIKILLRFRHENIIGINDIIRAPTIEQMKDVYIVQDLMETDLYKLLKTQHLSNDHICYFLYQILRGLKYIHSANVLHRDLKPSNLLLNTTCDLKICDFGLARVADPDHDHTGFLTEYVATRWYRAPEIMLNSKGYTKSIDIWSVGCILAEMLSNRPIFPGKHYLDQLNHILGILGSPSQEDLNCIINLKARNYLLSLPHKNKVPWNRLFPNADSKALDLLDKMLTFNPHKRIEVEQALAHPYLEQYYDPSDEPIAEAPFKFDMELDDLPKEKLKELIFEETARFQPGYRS
Chain of ALK tyrosine kinase receptor (Q9UM73 19-1620 limits assumed): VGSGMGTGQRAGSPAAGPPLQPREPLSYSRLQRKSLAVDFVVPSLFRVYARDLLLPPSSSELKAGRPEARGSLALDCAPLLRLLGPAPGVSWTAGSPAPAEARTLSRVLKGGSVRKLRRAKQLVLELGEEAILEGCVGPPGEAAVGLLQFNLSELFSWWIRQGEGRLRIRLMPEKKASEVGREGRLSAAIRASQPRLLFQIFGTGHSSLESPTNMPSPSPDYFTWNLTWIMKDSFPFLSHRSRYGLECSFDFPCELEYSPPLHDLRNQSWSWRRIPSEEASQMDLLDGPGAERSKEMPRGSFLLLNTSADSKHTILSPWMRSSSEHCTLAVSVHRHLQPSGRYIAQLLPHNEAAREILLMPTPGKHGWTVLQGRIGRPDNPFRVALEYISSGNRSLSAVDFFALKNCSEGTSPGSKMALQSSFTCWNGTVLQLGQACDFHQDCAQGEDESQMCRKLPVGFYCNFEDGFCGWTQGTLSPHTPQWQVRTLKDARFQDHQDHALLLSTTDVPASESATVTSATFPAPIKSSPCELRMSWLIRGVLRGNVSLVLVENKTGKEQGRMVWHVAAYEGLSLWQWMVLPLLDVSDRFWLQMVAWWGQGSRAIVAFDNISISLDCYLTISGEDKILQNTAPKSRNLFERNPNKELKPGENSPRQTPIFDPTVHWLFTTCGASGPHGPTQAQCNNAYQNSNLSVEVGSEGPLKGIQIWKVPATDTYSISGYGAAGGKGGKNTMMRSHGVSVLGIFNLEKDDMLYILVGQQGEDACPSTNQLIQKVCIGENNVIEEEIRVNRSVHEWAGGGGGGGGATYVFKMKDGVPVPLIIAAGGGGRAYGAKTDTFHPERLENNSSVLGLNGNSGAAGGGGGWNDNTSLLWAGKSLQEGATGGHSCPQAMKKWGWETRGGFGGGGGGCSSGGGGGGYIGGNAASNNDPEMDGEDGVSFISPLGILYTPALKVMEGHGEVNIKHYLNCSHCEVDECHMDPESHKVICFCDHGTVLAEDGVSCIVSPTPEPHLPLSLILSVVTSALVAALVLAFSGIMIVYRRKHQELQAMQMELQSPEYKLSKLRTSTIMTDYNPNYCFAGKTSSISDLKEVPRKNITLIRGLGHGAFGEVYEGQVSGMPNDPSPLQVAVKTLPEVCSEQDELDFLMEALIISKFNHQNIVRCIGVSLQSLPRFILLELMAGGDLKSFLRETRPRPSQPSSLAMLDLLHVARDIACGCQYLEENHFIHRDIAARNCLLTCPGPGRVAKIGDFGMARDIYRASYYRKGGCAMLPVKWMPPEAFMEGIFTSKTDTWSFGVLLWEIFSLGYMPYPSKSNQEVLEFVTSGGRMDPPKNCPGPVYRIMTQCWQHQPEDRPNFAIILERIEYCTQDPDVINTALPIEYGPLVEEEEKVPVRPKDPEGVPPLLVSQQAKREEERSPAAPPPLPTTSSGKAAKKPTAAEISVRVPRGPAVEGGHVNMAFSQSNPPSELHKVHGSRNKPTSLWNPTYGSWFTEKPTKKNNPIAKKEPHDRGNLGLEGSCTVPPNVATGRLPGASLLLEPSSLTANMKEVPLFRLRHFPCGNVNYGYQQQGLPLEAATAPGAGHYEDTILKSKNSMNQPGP

`C=CC(=O)Nc1ccc(C(=O)Nc2[nH]nc3c2CN(C(=O)N[C@H](CN(C)C)c2ccccc2)C3(C)C)cc1` registered a % of engagement in assay [1] of 0.4%.
In assay [2], `CC[C@@H]1[C@H](F)C(=O)N[C@@H]1COc1nccc2cc(C(N)=O)c(OC)cc12` [ZIMLOVISERTIB] returned a % of inhibition of 16.4%.
Consider `Cc1cc(F)c(C(=O)Nc2cccc(-c3nncn3C(C)C)n2)cc1-n1cnc(C2CC2)c1`, for which, in assay [3], the % of control is 70%.
As for `CCC(=O)N1CCN(c2ccc(-n3c(=O)ccc4cnc5ccc(-c6cnc7ccccc7c6)cc5c43)cc2C(F)(F)F)CC1`, the % of control in assay [4] stood at 80%.
For the molecule `Cc1cc(C)cc([C@H]2c3cc(C)ccc3NC(=O)CN2C(=O)c2ccc(Br)s2)c1`, the % of activity in assay [5] (at 1 µM) and in assay [5] (at 10 µM) was 94.3% each time.
